Assay results as given in US20100183585A1, “METHODS AND COMPOSITIONS FOR TREATING TUMORS AND METASTASES THROUGH THE MODULATION OF LATEXIN” (University of Kentucky Research Foundation, priority 2008, published 2010).

Test system: latexin
Test: latexin mRNA by quantitative real-time PCR in leukemic cell lines after 5-aza-2′-deoxycytidine treatment
Type: cell-based, human
Settings: for latexin gene expression: 2 μM for 4 days
Method: To measure the expression of latexin in leukemic cells, quantitative real-time PCR was performed. Identical numbers (200,000) of cells were used for total RNA extraction using RNeasy Mini kit (QIAGEN, Valencia, Calif.) according to the manufacture's instructions. Isolated total RNA was reverse transcribed into cDNA using random hexamers in TaqMan® reverse transcription solution (PN N8080234), and stored at −20° C. In real-time PCR reactions, primer and probe mix for human latexin were purchased from Applied Biosystems (Foster city, CA, USA). TaqMan® human glyceraldehyde-3-phosphate dehydrogenase (GAPDH) was served as an endogenous control to normalize latexin expression. PCR reactions were set up as per manufacturer's instructions using TaqMan® universal PCR master mix (PN 4304437). Analyses of gene expression were performed in single reporter assays in an ABI PRISM 7700 sequence detection system (PE Biosystems, Foster city, CA, USA).
To examine the correlation of promoter hypermethylation and latexin gene expression, leukemia cell lines shown to have a lack of or decrease in latexin expression were subjected to 5-aza-2′-deoxycytidine treatment. Cells were plated with 2 ? M 5-aza-2′-deoxycytidine (Sigma-Aldrich; St. Louis, Mo.), and incubated for 4 days. The medium and the drug were replaced every 24 hours, and cells were harvested for RNA and DNA extraction 4 days after treatment.

For `Nc1ncn([C@H]2C[C@H](O)[C@@H](CO)O2)c(=O)n1` [5-aza-2′-deoxycytidine], the latexin gene expression (HL-60, KG-1, SupB15 lines) was “significantly up-regulated”, the latexin gene expression (K562, Molt4, CCRF-CEM, J45.01, Jurkat, U937 (completely lacked latexin expression prior to treatment)) was “reactivated” and the latexin expression (human leukemia and lymphoma cell lines treated with the demethylating reagent) was “re-initiated or up-regulated”.
